US20220242894A1, “Ruthenium (II) Complexes and Their Use as AntiCancer Agents” (Paris Sciences et Lettres, priority 2019, published 2022)
Read-outs that look alike come from different tables or passages of the source.

How the values were obtained:
[1] = tested on: A2780 (human ovarian carcinoma); assay: Cytotoxicity, fluorometric cell viability assay (resazurin), A2780; type: cell-based; settings: read-out: IC50 (μM) A2780
Procedure: (§1) HeLa and CT-26 cell lines were cultured in DMEM media (Gibco) supplemented with 10% of fetal calf serum (Gibco). CT-26 LUC cell line was cultured in DMEM media (Gibco) supplemented with 10% of fetal calf serum (Gibco) and 1% Genticin. RPE-1 cell line was cultured in DMEM/F-12 media (Gibco) supplemented with 10% of fetal calf serum. […] The resistance of A2780 cis was maintained by cisplatin treatment (1 μM) for one week every month. […] U87 cell line was cultured in MEM media (Gibco) supplemented with 10% of fetal calf serum (Gibco) and 1% of non-essential amino acid mixture (Gibco). Cell lines were complemented with 100 U/ml penicillin-streptomycin mixture (Gibco) and maintained in humidified atmosphere at 37° C. and 5% of CO2.
(§2) Cytotoxicity of the tested Ru compounds according to the present invention was assessed by a fluorometric cell viability assay using Resazurin (ACROS Organics). […] After 24 h, cells were treated with increasing concentrations of the compounds. Compounds dilutions were prepared as follows: 2.5 mM stock in DMSO was further diluted to 100 μM with media and then filtrated. After 48 h incubation, medium was removed, and 100 μl of complete medium containing resazurin (0.2 mg/ml final concentration) was added. […] IC50 values were then calculated using GraphPad Prism software.

[2] = tested on: CT-26 (mouse colon adenocarcinoma); assay: Cytotoxicity, fluorometric cell viability assay (resazurin), CT-26; type: cell-based; settings: read-out: IC50 (μM) CT-26
Procedure: as §1, §2

[3] = tested on: RPE-1 (normal retina pigmented epithelial); assay: Cytotoxicity, fluorometric cell viability assay (resazurin), RPE-1; type: cell-based; settings: read-out: IC50 (μM) RPE-1
Procedure: as §1, §2

[4] = tested on: A2780 cis (human cisplatin resistant ovarian carcinoma); assay: Cytotoxicity, fluorometric cell viability assay (resazurin), A2780 cis; type: cell-based; settings: read-out: IC50 (μM) A2780 cis
Procedure: as §1, §2

[5] = tested on: CT-26 LUC (mouse colon adenocarcinoma stably expressing luciferase); assay: Cytotoxicity, fluorometric cell viability assay (resazurin), CT-26 LUC; type: cell-based; settings: read-out: IC50 (μM) CT-26 luc
Procedure: as §1, §2

HeLa (human cervical) = assay: Cytotoxicity, fluorometric cell viability assay (resazurin), HeLa; type: cell-based; settings: read-out: IC50 (μM) HeLa
Procedure: as §1, §2

[6] = tested on: A2780 ADR (human doxorubicin resistant ovarian carcinoma); assay: Cytotoxicity, fluorometric cell viability assay (resazurin), A2780 ADR; type: cell-based
Procedure: as §1, §2

[7] = Encapsulation in polysorbate 80 (film rehydration); type: physicochemical; settings: in 50 mg/mL of polysorbate 80 in PBS, after 0.20 μm filtration
Procedure: The solvent was removed by rotary evaporation at 40° C. The red film was then resuspended in PBS (2 mL) at room temperature. The solution was finally sterile filtered on a 0.20 μm nylon membrane (Corning© 431224) to yield a clear red solution.
50 μL of the sample was diluted in 100 μL of acetonitrile and the absorbance was recorded at 480 nm in 96 wells plates from Corning© (Fisher Scientific 15329740) using a SpectraMax M5 microplate Reader.
Encapsulation efficiency was calculated by comparing the absorbance of the solution before and after filtration using the following equation.
To ensure its repeatability, the procedure was performed in triplicate.

[8] = Dose-finding study, maximum tolerated dose; settings: healthy mice, i.p., weight loss limit 10% over 14 days
[9] = tested on: glycolysis in CT-26 cells; assay: Seahorse glycolytic stress test; type: cell-based, mouse; settings: CT-26, 1 μM, 24 h incubation
Procedure: (§3) The preference of compound 1 to accumulate in the nucleus and mitochondria in HeLa cells inspired further studies on metabolic pathways that could be affected by the compound. For this purpose, Seahorse XF Analyzer was used. […] The effect on the other metabolic pathways, i.e. glycolysis and the possible metabolic modulation of the three primary fuel pathways, i.e. glucose, glutamine and fatty acid were then examined.
CT-26 cells were seeded in Seahorse XFe96 well plates at a density of 30,000 cells/well in 80 μL. […] After 24 h of incubation, the regular media was removed and the cells were washed thrice using bicarbonate, glucose and serum free DMEM, supplemented 1% glutamine and 1% sodium pyruvate and incubated in a non-CO2 incubator at 37° C. for an hour. Glycolytic stress test was run using glucose, 10 mM, Oligomycin, 1 μM and 2-Deoxyglucose, 50 mM in ports A, B and C respectively using Seahorse XFe96 Extracellular Flux Analyzer.

[10] = tested on: MRC-5 (normal lung fibroblasts); assay: Ruthenium cellular accumulation by ICP-MS, MRC5
Procedure: All the fractions (mitochondria, lysosomes and nucleus) were isolated from the same cellular sample for direct comparative purposes. The supernatant phases discarded during the isolation of nuclei, lysosomes and mitochondria procedures were collected and formed the “residual” fraction. An aliquot of crude lysate after homogenization, nuclear, mitochondrial (pellet lysed via freeze and thaw cycles followed by 20 minutes incubation in ultrasonic bath), lysosomal and residual fraction was each used for protein quantification using the Bradford method. The isolated samples were then lyophilized on an Alpha 2-4 LD plus (CHRIST). The resulting samples underwent chemical digestion with 10 mL of a 2% nitrohydrochloric acid solution for 24 h. The resulting suspensions were filtered on 0.20 μm non-pyrogenic sterile Filtropur filters (Sarstedt) and the obtained samples were injected in ICP-MS.
Ruthenium content of the samples was determined by means of a 7-step serial dilution in the range between 0 and 300 ppb in Ru (R>0.99) with a background equivalent concentration of BEC: 6.3 ppt and a detection limit of DL: 17 ppt. […] A solution of Indium (500 ppb) and Tungsten (500 ppb) was used as internal standard.

HeLa cells [11] = assay: Ruthenium cellular uptake and subcellular distribution by ICP-MS, HeLa; type: cell-based, human; settings: 5 μM
Procedure: All the treatments were set up at the same concentration for comparative purposes. The medium was then removed, the cells washed with PBS and trypsinized. […] The organelles were then isolated via differential centrifugation. To separate lysosomes, a Lysosome Isolation Kit (Cat. Nr: LYSISO1, Sigma Aldrich) as well as the manufacturer procedure with minor modification was used. Briefly, the collected pellets were redissolved in 2.0 ml of extraction buffer added with proteases cocktail (delivered with the kit) and incubated for 15 min on ice. The samples were then homogenized with a pre-chilled dounce homogenizer (7 ml, tight pestle A, 22 strokes) and centrifuged at 1000 g for 10 min at 4° C. […] These steps of the isolation procedure were monitored under phase contrast microscope on Menzel-Glaser coverslips (Olympus IX81 microscope).
The supernatant was transferred in a fresh tube and centrifuged at 14000 g for 30 min at 4° C. […] The intact lysosomal content was proofed with Neutral-Red Reagent (delivered in the kit) with dual-wavelength absorbance mode at 460 and 510 nm over a kinetic of 3 minutes in a Spectramax M5 microplate reader (Molecular Devices). […]
Ruthenium content of the samples was determined by means of a 7-step serial dilution in the range between 0 and 300 ppb in Ru (R>0.99) with a background equivalent concentration of BEC: 6.3 ppt and a detection limit of DL: 17 ppt. […]

HeLa cells [12] = assay: Annexin V/PI assay (cell death mechanism); settings: 10 μM
From the text: For this experiment, Annexin V and PI staining method were utilised on HeLa cells.^15 Staurosporin, a known inducer of apoptosis, was used as a positive control.

[13] = tested on: mitochondrial metabolism (oxidative phosphorylation) in CT-26 cell line; assay: Seahorse Mitostress test; type: cell-based, mouse; settings: CT-26, 1 μM, 24 h incubation
Procedure: as §3
CT-26 cells were seeded in Seahorse XFe96 well plates at a density of 30,000 cells/well in 80 μL. […] After 24 h of incubation, the regular media was removed and the cells were washed thrice using bicarbonate and serum free DMEM, supplemented with glucose, 1.8 mg/mL; 1% glutamine and 1% sodium pyruvate and incubated in a non-CO2 incubator at 37° C. for 1 h. Mitostress assay was run using Oligomycin, 1 μM, FCCP 1 μM and mixture of Antimycin-A/Rotenone 1 μM each in ports A, B and C respectively using Seahorse XFe96 Extracellular Flux Analyzer.

[14] = tested on: fuel pathways (glucose, glutamine, fatty acid) in CT-26 cells; assay: Seahorse fuel flex assay; type: cell-based, mouse; settings: CT-26, 1 μM, 24 h incubation
Procedure: as §3
CT-26 cells were seeded in Seahorse XFe96 well plates at a density of 30,000 cells/well in 80 μL. […] After 24 h of incubation, the regular media was removed and the cells were washed thrice using bicarbonate, and serum free DMEM, supplemented with 1.8 mg/mL glucose, 1% glutamine and 1% sodium pyruvate and incubated in a non-CO2 incubator at 37° C. for an hour. Fuel flex assay for the different fuel pathways viz. glucose, glutamine and fatty acid was studied by measuring the basal oxygen consumption rates and that after addition of the inhibitor of the target pathway in port A and a mixture of the inhibitors of the other two pathways in port B. This gave a measure of the dependency of the cells on a fuel pathway. To study the capacity of a certain fuel pathway, the sequence of addition of the inhibitors was reversed. In port A was added the mixture of inhibitors for the other pathways and in port B was added the inhibitor for the target pathway. […]

solid Ehrlich tumour [15] = assay: Tumour weight, solid Ehrlich tumour, day 10; settings: 5 mg/kg i.p. on days 1 and 7, measured on day 10
From the text: Values are the means±SEM (n=7 in each group).
A solid Ehrlich tumour was purchased from the Research Institute for Pharmacy and Biochemistry (VUFB) in Prague, and then maintained in NMRI mice by periodical transplantations. […] On the tenth day, half of the mice were sacrificed, and their tumours were weighed.
One-Way Analysis of Variance with post-hoc Dunnetts's multiple comparison test was used to detect differences in tumour weight.

solid Ehrlich tumour [16] = assay: Survival of mice bearing solid Ehrlich tumour; type: in vivo; settings: 5 mg/kg i.p. on days 1 and 7, tumour-bearing NMRI mice
From the text: A solid Ehrlich tumour was purchased from the Research Institute for Pharmacy and Biochemistry (VUFB) in Prague, and then maintained in NMRI mice by periodical transplantations. […] On the tenth day, half of the mice were sacrificed, and their tumours were weighed. The remaining animals were left in order to observe their survival.
One-Way Analysis of Variance with post-hoc Dunnetts's multiple comparison test was used to detect differences in tumour weight. Kaplan-Meier curves (FIG. 4) and logrank tests were used to compare survival times in groups. Here, the level of significance was α=0.05.

[17] = RPE-1 normal cells, 48 h incubation
[18] = A2780 cis (cisplatin resistant), 48 h incubation
[19] = A2780 ADR (doxorubicin resistant), 48 h incubation; read-out: IC50 (μM) A2780 ADR
[20] = Homo sapiens, A2780, 48 h incubation
[21] = Mus musculus, CT26, CT-26, 48 h incubation
[22] = Homo sapiens, RPE-1 normal cells, 48 h incubation
[23] = Homo sapiens, A2780cis, A2780 cis (cisplatin resistant), 48 h incubation
[24] = Mus musculus, CT26, CT-26 luc, 48 h incubation
[25] = Homo sapiens, A2780 ADR, 48 h; read-out: IC50 (μM) A2780 ADR

Compound	IC50 [1, 20] [µM]	IC50 [2, 21] [µM]	IC50 [3, 22] [µM]	IC50 [4, 23] [µM]	IC50 [5, 24] [µM]	IC50 (HeLa (human cervical); Homo sapiens, 48 h incubation) [µM]	IC50 [6, 25] [µM]	further results
Ru(DIP)2(4-Nitrocat) [Compound 8]								IC50 ([1]; A2780, 48 h incubation): 12.4 ± 0.8 µM; IC50 ([2]; CT-26, 48 h incubation): 7.61 ± 0.11 µM; IC50 [3, 17]: 16.6 ± 0.98 µM; IC50 [4, 18]: 16.4 ± 2.04 µM; IC50 ([5]; CT-26 luc, 48 h incubation): 9.01 ± 0.19 µM; IC50 (HeLa (human cervical); 48 h incubation): 10 ± 0.44 µM; IC50 [6, 19]: 18.6 ± 2.02 µM
[Ru(DIP)2(Tetrabromocat)] [Compound 5]								IC50 ([1]; A2780, 48 h incubation): 10.2 ± 0.14 µM; IC50 ([2]; CT-26, 48 h incubation): 10.5 ± 0.5 µM; IC50 [3, 17]: 23.2 ± 2.5 µM; IC50 [4, 18]: 17.2 ± 1.4 µM; IC50 ([5]; CT-26 luc, 48 h incubation): 11.6 ± 0.7 µM; IC50 (HeLa (human cervical); 48 h incubation): 10.5 ± 0.25 µM; IC50 [6, 19]: 15 ± 0.75 µM
COc1cccc(O)c1O [3-methoxycatechol]	18.7 ± 1.17	45.7 ± 4.21	> 100	36.5 ± 1.94	36.4 ± 6.28	56.2 ± 4.18	30.1 ± 1.35	
Cc1occc(=O)c1O [Maltol, 3-Hydroxy-2-methyl-4H-pyran-4-one]	> 100	> 100	> 100	> 100	> 100	74 ± 14.6	> 100	
O=[N+]([O-])c1ccc(O)c(O)c1 [4-nitrocatechol]	30.9 ± 2.05	17.5 ± 1.02	45 ± 19	> 100	15.3 ± 1	> 100	61.5 ± 3.63	
Oc1ccccc1O [catechol]	22.4 ± 5.83	16	> 100	56 ± 9.46	11.5 ± 0.4	> 100	> 100	
COc1cccc2c1C(=O)c1c(O)c3c(c(O)c1C2=O)C[C@@](O)(C(=O)CO)C[C@@H]3O[C@H]1C[C@H](N)[C@H](O)[C@H](C)O1 [Doxorubicin]	0.19 ± 0.03	0.082 ± 0.003	0.89 ± 0.17	0.54 ± 0.04		0.34 ± 0.02	5.94 ± 0.58	
Oc1c(O)c(Br)c(Br)c(Br)c1Br [Tetrabromocatechol]								IC50 ([1]; Homo sapiens, A2780, 48 h): 8.75 ± 0.2 µM; IC50 ([2]; Mus musculus, CT26, 48 h): 5.53 ± 0.37 µM; IC50 ([3]; Homo sapiens, RPE-1, 48 h): 13.5 ± 1.7 µM; IC50 ([4]; Homo sapiens, A2780cis, 48 h): 13.6 ± 0.88 µM; IC50 ([5]; Mus musculus, CT26, 48 h): 3.8 ± 0.34 µM; IC50 (HeLa (human cervical); Homo sapiens, 48 h): 29.9 ± 1.6 µM; IC50 ([6]; Homo sapiens, A2780 ADR, 48 h, read-out: IC50 (μM) A2780 ADR): 14.4 ± 1.18 µM
[Ru(DIP)2(3-Methoxysq)](PF6) [Compound 4]								concentration dissolved [7]: 840 ± 60 µg/mL
CC(C)(C)c1ccc(O)c(O)c1 [4-tertbutylcatechol]	9.14 ± 0.7	9.94 ± 0.63	55.1 ± 4.64	14.6 ± 0.81	9.72 ± 0.67	93.1 ± 9.8	12.9 ± 1.2	
Cc1cccc(O)c1O [3-methylcatechol]	9.99 ± 1.26	17.5 ± 0.73	> 100	14.7 ± 0.69	12.1 ± 1.4	> 100	2.71 ± 0.82	
[Ru(DIP)2(Sq)](PF6) [Compound 1]								maximum tolerated dose (MTD) [8]: 15 mg/kg of body weight; glycolysis of the cells [9]: not affected; compound taken up by healthy cells [10]: less than 25%; subcellular accumulation of ruthenium (HeLa cells [11]; 2 h, fractionated): preferential accumulation inside the nucleus; cellular uptake (internalization) (HeLa cells [11]; after 2 h): Near complete internalization; induction of apoptosis/necrosis (HeLa cells [12]; 30 min after treatment): induces apoptosis; type of cell death (HeLa cells [12]; 4 h or 24 h incubation): apoptosis as a main type of the cell death; ATP production [13]: inhibited; mitochondrial respiration [13]: severely impaired; effect on the 3 primary fuel pathways [14]: no direct effect
N.N.[Cl][Pt][Cl] [Cisplatin]								effect on tumour growth (tumour weight) (solid Ehrlich tumour [15]): significant inhibitory effect; IC50 ([1]; A2780, 48 h incubation): 4 ± 0.76 µM; IC50 ([2]; CT-26, 48 h incubation): 2.6 ± 0.18 µM; IC50 [3, 17]: 30.2 ± 5.11 µM; geometric mean of overall survival (solid Ehrlich tumour [16]): 33.7 days; IC50 [4, 18]: 18.3 ± 2.92 µM; IC50 ([5]; CT-26 luc, 48 h incubation): 2.42 ± 0.23 µM; IC50 (HeLa (human cervical); 48 h incubation): 9.28 ± 0.2 µM; IC50 [6, 19]: 8.32 ± 0.71 µM
Cc1ccc(O)c(O)c1 [4-methylcatechol]	15.2 ± 1	34.4 ± 1.41	> 100	34.6 ± 1.49	33.3 ± 3.4	> 100	29.3 ± 1.96	
[Cl-].[Cl-].[Ru+2].c1ccc(-c2ccnc3c2ccc2c(-c4ccccc4)ccnc23)cc1.c1ccc(-c2ccnc3c2ccc2c(-c4ccccc4)ccnc23)cc1 [Ru(DIP)2Cl2]								IC50 ([1]; A2780, 48 h incubation): 4.69 ± 0.14 µM; IC50 ([2]; CT-26, 48 h incubation): 9.2 ± 1.22 µM; IC50 [3, 17]: 3.13 ± 0.07 µM; IC50 [4, 18]: 6.36 ± 0.57 µM; IC50 ([5]; CT-26 luc, 48 h incubation): 6.65 ± 0.5 µM; IC50 (HeLa (human cervical); 48 h incubation): 15 ± 0.4 µM; IC50 [6, 19]: 78.3 ± 4.9 µM
